In article PMC12434519:
Like-named read-outs stand apart in the source and are kept apart here.

Key:
ZIKV NS5 = ZIKV NS5 (Zika virus, UniProt Q32ZE1); experiment: Biochemical activity assay for ZIKV NS5 MTase (MTase-Glo); settings: for Emax: 0.75 h, read-out: ZIKV NS5 inhibition: Maximum measured; for ZIKV NS5 inhibition: Hill slope: fit of concentration-response curve
Procedure: final concentration, lab stock) during dialysis at 4 °C overnight against a buffer containing 50 mM Tris-HCl, pH 7.5, 20 mM imidazole, 500 mM NaCl, and 1 mM dithiothreitol (DTT). To remove the His6-SUMO tag, the protein sample was mixed with cOmplete His-Tag purification resin (Roche), incubated for 2 h at 4 °C, and loaded onto a gravity flow column. Since the His6-SUMO tag bound to the column material, the flow-through was collected containing untagged target protein. The target protein was further purified by a Superdex200 10/300 gel filtration column (GE Healthcare) in buffer (20 mM Tris-HCl, pH 7.5, 500 mM NaCl, 1 mM DTT). Fractions were analyzed by SDS-PAGE and Coomassie staining. Protein-containing fractions were pooled, flash-frozen in liquid nitrogen, and stored at -80 °C. […]
in 1X NSP14 reaction buffer (50 mM Tris-HCl, pH 7.5, 6 mM KCl, 1.25 mM MgCl2, 1 mM DTT, and 0.01% Tween-20) in a total reaction volume of 16 µl in absence or presence of increasing inhibitor compound concentrations for 45 min at 37 °C. SAH production was monitored using the bioluminescence-based MTase-Glo™ Methyltransferase Assay kit (Promega) following manufacturer’s instructions. The luminescence signal of each reaction was recorded in relative light units (RLUs) using a Synergy Neo plate reader (BioTek, Winooski, VT). […] IC50 values (mean from at least 3 independent experiments) were calculated using the GraphPad Prism software (Version 10.1.1) and a four-parameter logistic regression.
Biochemical activity assays for the human RNMT-RAM complex and ZIKV NS5 MTases Activity assays were performed in 1x NSP14 reaction buffer. For hRNMT-RAM, we used 15 nM enzyme, 2.5 µM GpppG and 2 µM SAM. For ZIKV NS5, we used 25 nM enzyme, 3 µM […]
Gppp[…]3, and 5 µM SAM. The enzymatic reaction was initiated with the addition of the enzyme in assay buffer and incubated at RT or 37 °C for 45 min, respectively. SAH was detected using the MTase-Glo™ assay.
Differential scanning fluorimetry (DSF)

human RNMT-RAM complex = human RNMT-RAM complex (Homo sapiens, UniProt O43148); experiment: Biochemical activity assay for the human RNMT-RAM complex (MTase-Glo); settings: for Emax: read-out: hRNMT-RAM inhibition: Maximum response; for hRNMT-RAM inhibition: Hill slope: fit of concentration-response curve
Sequence of human RNMT-RAM complex (O43148 whole entry): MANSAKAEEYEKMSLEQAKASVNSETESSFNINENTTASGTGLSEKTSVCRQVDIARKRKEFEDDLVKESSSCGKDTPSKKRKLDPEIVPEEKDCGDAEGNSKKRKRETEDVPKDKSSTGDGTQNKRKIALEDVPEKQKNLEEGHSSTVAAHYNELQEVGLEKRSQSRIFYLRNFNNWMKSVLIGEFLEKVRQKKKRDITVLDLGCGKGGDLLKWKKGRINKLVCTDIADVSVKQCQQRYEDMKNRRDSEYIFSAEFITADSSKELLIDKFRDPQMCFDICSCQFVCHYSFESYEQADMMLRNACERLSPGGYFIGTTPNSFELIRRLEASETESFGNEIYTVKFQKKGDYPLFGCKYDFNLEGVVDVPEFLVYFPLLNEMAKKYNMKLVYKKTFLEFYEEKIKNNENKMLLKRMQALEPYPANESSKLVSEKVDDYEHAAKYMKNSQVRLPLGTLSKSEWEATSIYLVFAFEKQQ
Sequence of human RNMT-RAM complex (Q9BTL3 whole entry partner): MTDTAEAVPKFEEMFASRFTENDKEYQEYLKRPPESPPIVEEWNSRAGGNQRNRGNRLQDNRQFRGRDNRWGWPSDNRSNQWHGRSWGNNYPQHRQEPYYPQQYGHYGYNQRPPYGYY

[1] = SAH counterscreen inhibition (counterscreen of the MTase-Glo luminescence readout); settings: for SAH counterscreen inhibition: Maximum response / IC50: LUM % inhibition; for SAH counterscreen inhibition: Hill slope: fit of concentration-response curve; for IC50: read-out: SAH counterscreen inhibition: IC50
[2] = selectivity assay, read-out: ZIKV NS5 inhibition IC50
[3] = LUM % inhibition, read-out: hRNMT-RAM inhibition: IC50

Sequence of ZIKV NS5 (Q32ZE1 2517-2781): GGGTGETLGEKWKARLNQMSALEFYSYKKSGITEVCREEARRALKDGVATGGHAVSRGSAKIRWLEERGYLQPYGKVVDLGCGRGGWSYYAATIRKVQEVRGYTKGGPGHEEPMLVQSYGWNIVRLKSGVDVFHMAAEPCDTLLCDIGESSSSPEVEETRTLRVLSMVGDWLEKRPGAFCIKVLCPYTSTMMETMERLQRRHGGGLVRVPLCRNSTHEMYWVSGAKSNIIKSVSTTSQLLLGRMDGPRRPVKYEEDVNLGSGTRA

SMILES	Emax (ZIKV NS5; LUM % inhibition)	IC50 (ZIKV NS5; LUM % inhibition)	ZIKV NS5 inhibition: Hill slope (ZIKV NS5)	IC50 (human RNMT-RAM complex)	Emax (human RNMT-RAM complex; LUM % inhibition)	hRNMT-RAM inhibition: Hill slope (human RNMT-RAM complex)	SAH counterscreen inhibition: Maximum response [1]	SAH counterscreen inhibition: Hill slope [1]	IC50 [1]	IC50 (ZIKV NS5; [2])	IC50 (human RNMT-RAM complex; [3])	Emax (human RNMT-RAM complex)
Nc1ncnc2c1ncn2C1OC(CC(N)CCC(N)C(=O)O)C(O)C1O (stereo not drawn) [RU-0425548]	109%	0.21 µM	0.774	0.00596 µM	102%	0.881	8.34%	7.74	> 62.5 µM			
COc1ccc(-c2ocnc2C(=O)Nc2ccc3oc(=O)n(CC(=O)N4CCCCC4)c3c2)cc1 [RU-0833661, COC1=CC=C(C2=C(C(=O)NC3=CC=C4OC(=O)N(CC(=O)N5CCCCC5)C4=C3)N=CO2)C=C1]	66.6%		1.01			5.03	20.6%	0.36	> 125 µM	73.7 µM	> 125 µM	36.6%
O=C(Cn1cccc(-c2nc(-c3ccccc3)no2)c1=O)Nc1ccc(F)cc1F [RU-0833868, Fc1c(NC(=O)CN2C=CC=C(c3nc(c4ccccc4)no3)C2=O)ccc(F)c1]	64.4%		0.969			3.14	21.5%	19.2	> 125 µM	122 µM	> 250 µM	5.14%
Cc1ccc(NC(=O)Cn2nnc3ccccc3c2=O)cc1S(=O)(=O)N1CCCCC1 [RU-0833928, S(=O)(=O)(N1CCCCC1)c1c(C)ccc(NC(=O)CN2N=Nc3c(cccc3)C2=O)c1]	9.49%	> 250 µM	-7.54			0.501	21.6%	-3.01	> 125 µM		> 250 µM	8.18%
Cc1nc(C)c(C(=O)NCc2ccc(CNC(=O)c3ccc(O)c(F)c3)cc2)nc1C [RU-0834080, CC1=NC(C)=C(C)N=C1C(=O)NCC1=CC=C(CNC(=O)C2=CC(F)=C(O)C=C2)C=C1]	18.4%	> 250 µM	1.81			1.28	16.2%	-2.71	> 125 µM		> 250 µM	23.1%
CCn1nc(C)c(C(=O)NCCc2ccc(CNC(=O)c3ccc4[nH]ncc4c3)cc2)c1C [RU-0834081, CCN1N=C(C)C(C(=O)NCCC2=CC=C(CNC(=O)C3=CC4=C(C=C3)NN=C4)C=C2)=C1C]	15.9%	> 250 µM	4.21			0.243	11.2%	6.42	> 125 µM		> 250 µM	15.2%
Cc1cc(C(=O)NCc2ccc(C(=O)NC(C)c3ccccc3C)nc2)ccc1O (stereo not drawn) [RU-0834146, CC1=CC(C(=O)NCC2=CN=C(C(=O)NC(C)C3=C(C)C=CC=C3)C=C2)=CC=C1O]	11.2%	> 250 µM	10.6			86	16.1%	-44.2	> 125 µM		> 250 µM	4.85%
Cc1nccc(C(=O)NCC2CCC3(CN(C(=O)c4cc(C)c5[nH]ncc5c4)C3)O2)c1C (stereo not drawn) [RU-0834173, CC1=C2C(=CC(C(=O)N3CC4(C3)CCC(CNC(=O)C3=C(C)C(C)=NC=C3)O4)=C1)C=NN2]	10.3%	> 250 µM	20.4			1.99	12.6%	-9.25	> 125 µM		> 250 µM	3.36%
Cc1cccc(C(=O)NCC2CCC3(CN(C(=O)c4cc(C)c5[nH]ncc5c4)C3)O2)c1F (stereo not drawn) [RU-0834174, CC1=CC(C(=O)N2CC3(C2)CCC(CNC(=O)C2=CC=CC(C)=C2F)O3)=CC2=C1NN=C2]	12.9%	> 250 µM	1.95			0.374	16.2%	-17	> 125 µM		> 250 µM	26.5%
Cc1ccc(C)c(C(=O)NCC2CCC3(CN(C(=O)c4cc(C)c(O)c(C)c4)C3)O2)c1C (stereo not drawn) [RU-0834178, CC1=CC(C(=O)N2CC3(C2)CCC(CNC(=O)C2=C(C)C=CC(C)=C2C)O3)=CC(C)=C1O]	20.5%	> 250 µM	0.402			13.1	18.2%	-6.31	> 125 µM		> 250 µM	3.1%
C[C@@H](NC(=O)c1ccc(CNC(=O)c2ccc3[nH]ncc3c2)cc1)c1cccc(O)c1 [RU-0834179, C[C@@H](NC(=O)C1=CC=C(CNC(=O)C2=CC=C3NN=CC3=C2)C=C1)C1=CC(O)=CC=C1]	12.5%	> 250 µM	1.12			0.0614	14.4%	11.5	> 125 µM		> 250 µM	6.78%
Cc1cc(C)c(C(=O)NCc2ccc(CNC(=O)c3ccc(O)c(C)c3)cc2)cn1 [RU-0834181, CC1=CC(C(=O)NCC2=CC=C(CNC(=O)C3=CN=C(C)C=C3C)C=C2)=CC=C1O]	14.9%	> 250 µM	0.143			0.346	12.2%	63.6	> 125 µM		> 250 µM	20.8%
Cc1cnc(C(C)NC(=O)c2ccc(CNC(=O)c3ccc(O)c(C)c3)cn2)nc1 (stereo not drawn) [RU-0834184, CC1=CN=C(C(C)NC(=O)C2=NC=C(CNC(=O)C3=CC=C(O)C(C)=C3)C=C2)N=C1]	12.7%	> 250 µM	1.19			137	16.9%	13.5	> 125 µM		> 250 µM	5.53%
